# Assay results taken from PubChem BioAssay (NCI).
#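 Following 48 hours of exposure in 96-well plates, responses at five concentrations were used to interpolate endpoints linearly. GI50: concentration for 50% inhibition of growth. TGI denotes the concentration required for complete inhibition of growth.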
# What was measured:
# Assay in all cases: NCI anticancer screen, dose series, 48 h
# CAKI-1 renal = system: CAKI-1 renal
# NCI-H23 lung = system: NCI-H23 lung
# CCRF-CEM leukemia = system: CCRF-CEM leukemia
# U251 CNS = system: U251 CNS
# SNB-75 CNS = system: SNB-75 CNS
# ACHN renal = system: ACHN renal
# SK-MEL-28 melanoma = system: SK-MEL-28 melanoma
# 786-0 renal = system: 786-0 renal
# PC-3 prostate = system: PC-3 prostate
# T-47D breast = system: T-47D breast
Structure (SMILES),TGI (CAKI-1 renal) [µM],TGI (NCI-H23 lung) [µM],TGI (CCRF-CEM leukemia) [µM],TGI (U251 CNS) [µM],TGI (SNB-75 CNS) [µM],TGI (ACHN renal) [µM],TGI (SK-MEL-28 melanoma) [µM],TGI (786-0 renal) [µM],TGI (PC-3 prostate) [µM],GI50 (T-47D breast) [µM],TGI (T-47D breast) [µM],GI50 (NCI-H23 lung) [µM],GI50 (CCRF-CEM leukemia) [µM],GI50 (U251 CNS) [µM],GI50 (SNB-75 CNS) [µM],GI50 (ACHN renal) [µM],GI50 (SK-MEL-28 melanoma) [µM],GI50 (PC-3 prostate) [µM],GI50 (786-0 renal) [µM],GI50 (CAKI-1 renal) [µM]
C/C=C/C(=O)Oc1cccc2cccnc12,93.8,29,31.7,12.9,> 75.6,> 100,61.6,> 100,,,,,,,,,,,,
COc1cc(OCc2ccccc2)c2c(CCC(=O)O)cc(=O)oc2c1 (tested in a mixture with another compound),> 100,> 100,> 100,> 100,> 100,> 100,99.9,> 100,> 100,,,,,,,,,,,
Cc1cccc(NC(=O)C(=O)C(C2OC(=O)c3ccccc32)[N+](=O)[O-])c1C (stereo unspecified),24.2,18.9,20.4,12.6,19.7,22.9,25.1,21.8,,,,,,,,,,,,
O=C(/C=C/c1ccc(Cl)c(Cl)c1)c1ccccc1Cl,24.2,26.9,19.1,10.3,27.5,28.6,22.5,10.8,,,,,,,,,,,,
C[P+]1(Cc2ccccc2)CCCC1,,> 100,> 100,> 100,> 100,> 100,> 100,> 100,,,,,,,,,,,,
O=C(O)c1ccc2c(c1)C(=O)N(c1ccc(S(=O)(=O)c3ccc(N4C(=O)c5ccc(C(=O)O)cc5C4=O)cc3)cc1)C2=O,> 100,> 100,> 100,> 100,> 100,> 100,> 100,> 100,,,,,,,,,,,,
Cn1ncc(C#N)c1-c1ccc2c(c1)CN([C@H](CN)Cc1cccc(F)c1)C2=O,,> 100,> 100,> 86.4,3.09,> 100,> 83.2,14.6,> 70.5,0.0519,6.74,20,0.932,0.693,0.0925,13.6,3.72,0.393,0.145,
O=S(=O)(NC1=NCCN1C(=S)SN1CCn2c1nsc2=S)c1ccc(Oc2ccccc2)cc1,> 100,> 100,,> 100,> 100,> 100,> 100,> 100,> 100,81.3,> 100,43,,> 100,39.5,81.3,> 100,56,63.8,> 100
CC(=O)OC1CCC2OOC1O2 (stereo unspecified),> 100,> 100,> 100,> 100,> 100,> 100,> 100,> 100,,,,,,,,,,,,
CN(c1ccccc1)c1cc2ccccc2nn1,> 100,> 100,> 100,> 100,> 100,> 100,> 100,> 100,,,,,,,,,,,,
Nc1cccc2c1-c1c(cccc1[N+](=O)[O-])C2=O,> 100,> 100,> 100,> 100,> 100,,,> 100,,,,,,,,,,,,
